Assay results published in US8778961B2, “O-methylated rapamycin derivatives for alleviation and inhibition of lymphoproliferative disorders” (The Trustees of the University of Pennsylvania, priority 2000, dated 2014).
Several values for one entry are separate records, joined by “and”; a condition that tells them apart may be missing. Equal values may be shown once.

Tests used:
20A tumors = test: inhibition of tumor establishment in SCID mice; type: in vivo
Procedure: (§1) Establishment and passaging of the xenotransplanted tumors was performed as described (Douglas et al., 1998, Cytometry 32:57-65; Kawamata et al., 1998, Blood 91:561-569; Pepper et al., 1998, Leuk. Res. 22:439-444). To deplete macrophages and NK cells and to enhance tumor engraftment, SCID mice were injected intraperitoneally with 30-45 milligrams per kilogram of etoposide (Bedford Laboratories, Bedford, Ohio) 4 days prior to implantation of the human EBV^+ B-cell lines (Visonneau et al., 1998, Am. J. Path. 152:1299-1311). Ten million cells of each line employed (see results) were inoculated into mice either intraperitoneally or subcutaneously in 200 microliters of Dulbecco's Phosphate Buffered Saline (DPBS; BioWhittaker, Walkersville, Md.). Ascites or palpable subcutaneous tumors developed 3-5 weeks after cell injection.
(§2) Tumor treatment and growth inhibition experiments were performed using fragments of the established subcutaneous tumors (Pasqualucci et al., 1995, Blood 85:2139-2146, Visonneau et al., 1998, Am. J. Path. 152:1299-1311). For this purpose, mice were anesthetized with KETALAR™ (ketamine, Parke-Davis, Morris Plains, N.J.) by intraperitoneal injection of 100 milligrams per kilogram. Next, the primary tumor was aseptically removed and freed from necrotic, fatty and connective tissue and divided into small pieces of roughly equal size and 3-4 pieces per mouse were injected subcutaneously. Treatment of established tumors with SDZ RAD was started when tumors reached 5 millimeters diameter. In growth inhibition experiments, the treatment was initiated 3 days prior to the tumor implantation. Tumor volume in all experiments was determined from the equation: volume=0.4ab^2, where a and b designate respectively long and short diameter of the tumor. The transplanted mice were monitored for tumor growth for a period of up to 2 months. Five milligrams per kilogram of SDZ RAD was administered once a day by gavage as described (Schuurman et al., 1997, Transplantation 64:32-5; Schuler et al. 1997, Transplantation 64:36-42).
(§3) Mice were sacrificed by exposure to FORANE™ (isoflurane, Ohmeda, Liberty Place, N.J.) on day 29 in the drug toxicity study, on day 40-55 in the tumor growth inhibition study or when tumors achieved approximately 2 centimeter diameter, or when ulceration of the skin, signs of severe respiratory distress, weakness, or lethargy appeared. Complete autopsy was performed on all mice at the end of the study regardless of their appearance. Tumor and internal organs (spleen, liver, lung, heart, kidney, small and large intestines, femoral bone for bone marrow) were fixed in 10% (v/v) formalin, embedded in paraffin, cut into […] sections, transferred to glass slides, and stained with hematoxylin and eosin. Representative tumor fragments were stained immunohistochemically by standard streptavidin-biotin complex technique using commercially available reagents (Research Genetics, Huntsville, Ala.), antibodies: anti-CD20 (L-26) and LMP-1 (both from DAKO, Carpinteria, Calif.) and Ki67 (mib1; Immunotech, Westbrook, Me.). EBV-encoded RNA (EBER-1), and detected using commercially available reagents.
(§4) Because SDZ RAD, when used as an immunosuppressive agent, is administered chronically to transplant patients, its main therapeutic impact on PTLDs may be to inhibit their development rather than to alleviate the clinically symptomatic cases. To test if SDZ RAD can inhibit establishment of PTLD-like lymphomas, daily treatment with 5 milligrams per kilogram body weight of the drug was initiated 3 days prior to the tumor implantation. […] On day 25, the treated tumors measured in average 38 cubic millimeters, the untreated approximately 1940 cubic millimeters. On day 45, the median volume of the treated tumor was 480 cubic millimeters. In 20A tumors, 6 out of 11 tumors were not detectable on day 25; the median volume of the remaining 5 was 20 cubic millimeters. The average untreated tumor measured 210 cubic millimeters on that day. […]

A1 tumors = test: inhibition of tumor establishment in SCID mice; type: in vivo
Procedure: as §1, §2, §3, §4

15A tumors = test: inhibition of tumor establishment in SCID mice; type: in vivo
Procedure: as §1, §2, §3, §4

[1] = tested on: PTLD-like B cell lines 20A, A1, A2D6, and LCL; test: cell cycle progression by propidium iodide flow cytometry; type: cell-based, human; details: 48 hours
Procedure: The cell lines to be examined were cultured with several concentrations of SDZ RAD (0 to 10 nanomolar) for 24-48 hours. The cells were washed with DPBS and stain solution (pH 7.2) containing 3% PEG 6000, 50 micrograms per milliliter DNA fluorochrome propidium iodide (PI; Calbiochem, San Diego, Calif.), annexin V-FITC as described (Douglas et al., 1998, Cytometry 32:57-65) 0.1% (v/v) TRITON™ X (Sigma, St. Louis, Mo.), 4 millimolar citrate buffer pH 7.8, and 360 units per milliliter RNase A (Worthington Biochemicals, Freehold, N.J.) for 30 minutes at 37 C. Next, salt solution pH 7.2 (3% w/v PEG 6000, PI 50 micrograms per milliliter, 0.1% v/v TRITON™ X, and 0.4 molar NaCl) was added, and the cells were incubated at 4° C. in the dark for 1 hour before flow cytometry analysis was performed, as described (Douglas et al., 1998, Cytometry 32:57-65; Kawamata et al., 1998, Blood 91:561-569; Pepper et al., 1998, Leuk. Res. 22:439-444).
Rapamycin and, presumably, O-alkylated rapamycin derivatives such as SDZ RAD, block cell cycle progression at the early stage in normal T cells (Terada et al., 1993, J. Cell Physiol. 154:7-15; Flanagan et al., 1993, Ann. N.Y. Acad. Sci. 696:31-37). […] The effect was drug dose and cell-line type dependent. […] Percentages of cells in the later phases of the cell cycle (G2-M and S) were diminished proportionally. A1 and, to a lesser degree, A2D6 cell line were particularly sensitive to SDZ RAD. Four EBV^+ B-cell lines were cultured for 48 hours with 0-10 nanomolar SDZ RAD, labeled with propidium iodine, and analyzed by flow cytometry.

[2] = day 25, treatment from 3 days prior to implantation

CO[C@H]1C[C@@H]2CC[C@@H](C)[C@@](O)(O2)C(=O)C(=O)N2CCCC[C@H]2C(=O)O[C@H]([C@H](C)C[C@@H]2CC[C@@H](OCCO)[C@H](OC)C2)CC(=O)[C@H](C)/C=C(\C)[C@@H](O)[C@@H](OC)C(=O)[C@H](C)C[C@H](C)/C=C/C=C/C=C/1C [SDZ RAD, 40-O-(2-hydroxy)ethyl-rapamycin]
treated mice with no signs of tumor (establishment completely inhibited) (20A tumors; 11 treated mice, microscopic evaluation revealed no malignant cells): Five and 5/11 | median volume of the remaining 5 tumors (20A tumors; day 25): 20 cubic millimeters | tumors not detectable (20A tumors; [2]): 6 out of 11 | volume of treated tumors (none exceeded) (20A tumors; day 45): ≤ 150 cubic millimeters | tumor detection in the 8 treated mice (A1 tumors; day 29, treatment from 3 days prior to implantation): no tumor could be detected | mice with no evidence of tumor (establishment completely inhibited) (A1 tumors; day 53, 8 treated mice): 5 and 5/8 | mice with small, histologically confirmed lymphomas (A1 tumors; day 53, 8 treated mice): 3 | volume of the small lymphomas (A1 tumors; day 53, the 3 mice with lymphoma): < 5 cubic millimeters | effect on tumor growth and establishment (15A tumors; 5 milligrams per kilogram body weight daily, initiated 3 days prior to tumor implantation): profoundly delayed the tumor growth, but was unable to inhibit the tumor establishment | average treated tumor volume (15A tumors; [2]): 38 cubic millimeters | median volume of the treated tumor (15A tumors; day 45, treatment from 3 days prior to implantation): 480 cubic millimeters | cell cycle progression at the early, G0/G1 phase ([1]; all 4 cell lines, 0-10 nanomolar): markedly inhibited | increase in the percentage of cells in G0/G1 ([1]; highest dose 10 nanomolar): 10-70% | increase in the percentage of cells in G0/G1 ([1]; low doses 1-2 nanomolar): 5-25
